What was measured:
[1] = target: Neisseria gonorrhoeae FabI (Neisseria gonorrhoeae, UniProt A0ACH0F547); experiment: Neisseria gonorrhoeae FabI inhibition assay (NADH consumption)
[2] = Prediction of hepatic extraction ratio from liver microsome stability; type: in vitro ADME; settings: human liver microsomes, Well-Stirred model
Neisseria gonorrhoeae = experiment: MIC50 by CLSI agar dilution on a panel of N. gonorrhoeae clinical isolates; type: cell-based; settings: Neisseria gonorrhoeae; agar dilution, GC agar base, minimum of 15 clinical isolates; read-out: MIC50
Method: MIC50: MICs were determined in accordance with the appropriate Clinical and Laboratory Standards Institute (CLSI) methodology by the agar dilution susceptbility testing method in GC agar base.

[3] = Mouse cassette PK and oral bioavailability determination; type: in vivo, Female BALB/c mice; settings: female, BALB/c, mouse, plasma; iv 1 mg/kg, po 2 mg/kg, cassette dosing; read-out: Mouse F (%)
Method: Dose volumes were 5 ml/kg and 10 ml/kg for IV and oral administration, respectively. Compounds were co-formulated in a 10% DMSO (v/v) and 40% Captisol (w/v) in saline solution formulation (up to 3 compounds in a cassette). […] Tmax, Cmax, AUC, clearance, volume of distribution and oral bioavailability were estimated from the plasma concentrations using non-compartmental pharmacokinetic models. In particular, oral bioavailability (F %) was defined as F=(Doseiv*AUCpo)/(Dosepo*AUCiv)*100

Chain of Neisseria gonorrhoeae FabI (A0ACH0F547 1-261): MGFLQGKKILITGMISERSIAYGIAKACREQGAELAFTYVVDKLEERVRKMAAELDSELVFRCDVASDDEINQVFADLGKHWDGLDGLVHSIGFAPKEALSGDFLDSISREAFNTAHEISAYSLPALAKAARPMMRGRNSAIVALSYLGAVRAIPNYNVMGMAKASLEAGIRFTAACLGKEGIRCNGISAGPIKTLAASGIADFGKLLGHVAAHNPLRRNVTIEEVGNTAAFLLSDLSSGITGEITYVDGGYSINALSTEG

Row | SMILES | IC50 [1] [µM] | Predict Human hep ER [2] | MIC50 (Neisseria gonorrhoeae) [mg/L] | bioavailability [3] [%]
1 | Cc1oc2c(Oc3ccc4c(c3)OCO4)cccc2c1CN(C)C(=O)/C=C/c1cnc2c(c1)NCCC(=O)N2 [Compound 119, (E)-N-((7-(Benzo[d][1,3]dioxol-5-yloxy)-2-methylbenzofuran-3-yl)methyl)-N-methyl-3-(4-oxo-2,3,4,5-tetrahydro-1H-pyrido[2,3-b][1,4]diazepin-8-yl)acrylamide] | < 0.01 | 0.08 | < 1 | –
2 | Cc1c(CN(C)C(=O)/C=C/c2cnc3c(c2)NC(C)(CO)C(=O)N3)oc2ccccc12 (centres unmarked) [Compound 84, (E)-3-(2-(Hydroxymethyl)-2-methyl-3-oxo-1,2,3,4-tetrahydropyrido[2,3-b]pyrazin-7-yl)-N-methyl-N-((3-methylbenzofuran-2-yl)methyl)acrylamide] | < 0.01 | – | < 1 | –
3 | Cc1c(CN(C)C(=O)/C=C/c2cnc3c(c2)NC[C@@](C)(O)C(=O)N3)oc2cccc(N)c12 [Compound 143, (R,E)-N-((4-amino-3-methylbenzofuran-2-yl)methyl)-3-(3-hydroxy-3-methyl-4-oxo-2,3,4,5-tetrahydro-1H-pyrido[2,3-b][1,4]diazepin-8-yl)-N-methylacrylamide] | < 0.01 | – | < 1 | –
4 | Cc1oc2ccccc2c1CN(C)C(=O)/C=C/c1cnc2c(c1)NC1(CCOCC1)C(=O)N2 [Compound 64, (E)-N-Methyl-N-((2-methylbenzofuran-3-yl)methyl)-3-(3′-oxo-2,3,3′,4′,5,6-hexahydro-1′H-spiro[pyran-4,2′-pyrido[2,3-b]pyrazin]-7′-yl)acrylamide] | < 0.01 | – | < 1 | –
5 | Cc1oc2c(Oc3ccc4c(c3)OCC4)cccc2c1CN(C)C(=O)/C=C/c1cnc2c(c1)NC(C)(C)C(=O)N2 [Compound 164, (E)-N-((7-((2,3-dihydrobenzofuran-6-yl)oxy)-2-methylbenzofuran-3-yl)methyl)-3-(2,2-dimethyl-3-oxo-1,2,3,4-tetrahydropyrido[2,3-b]pyrazin-7-yl)-N-methylacrylamide] | < 0.01 | – | < 1 | –
6 | Cc1oc2ccccc2c1CN(C)C(=O)/C=C/c1cnc2c(c1)NCC(C)(CO)C(=O)N2 (centres unmarked) [Compound 39, (E)-3-(3-(Hydroxymethyl)-3-methyl-4-oxo-2,3,4,5-tetrahydro-1H-pyrido[2,3-b][1,4]diazepin-8-yl)-N-methyl-N-((2-methylbenzofuran-3-yl)methyl)acrylamide] | < 0.01 | – | < 1 | –
7 | Cc1oc2c(Oc3cncs3)cccc2c1CN(C)C(=O)/C=C/c1cnc2c(c1)NCCC(=O)N2 [Compound 101, (E)-N-Methyl-N-((2-methyl-7-(thiazol-5-yloxy)benzofuran-3-yl)methyl)-3-(4-oxo-2,3,4,5-tetrahydro-1H-pyrido[2,3-b][1,4]diazepin-8-yl)acrylamide] | < 0.01 | – | < 1 | –
8 | Cc1oc2c(N)cccc2c1CN(C)C(=O)/C=C/c1cnc2c(c1)NCCC(=O)N2 [Compound 75, (E)-N-((7-Amino-2-methylbenzofuran-3-yl)methyl)-N-methyl-3-(4-oxo-2,3,4,5-tetrahydro-1H-pyrido[2,3-b][1,4]diazepin-8-yl)acrylamide] | < 0.01 | – | < 1 | –

Further lines, results first:

Row | IC50 [1] [µM] | Predict Human hep ER [2] | MIC50 (Neisseria gonorrhoeae) [mg/L] | bioavailability [3] [%] | SMILES
9 | < 0.01 | 0.34 | < 1 | – | Cc1oc2c(N)cccc2c1CN(C)C(=O)/C=C/c1cnc2c(c1)NC(C)(C)C(=O)N2 [Compound 287, (E)-N-((7-amino-2-methylbenzofuran-3-yl)methyl)-3-(2,2-dimethyl-3-oxo-1,2,3,4-tetrahydropyrido[2,3-b]pyrazin-7-yl)-N-methylacrylamide]
10 | < 0.01 | 0.1 | < 1 | – | Cc1oc2c(N)cccc2c1CN(C)C(=O)/C=C/c1cnc2c(c1)N[C@H](C)[C@H](O)C(=O)N2 [Compound 290, (E)-N-((7-amino-2-methylbenzofuran-3-yl)methyl)-3-((2R,3S)-3-hydroxy-2-methyl-4-oxo-2,3,4,5-tetrahydro-1H-pyrido[2,3-b][1,4]diazepin-8-yl)-N-methylacrylamide]
11 | < 0.01 | – | < 1 | 16 | COc1cccc(Oc2cccc3c(CN(C)C(=O)/C=C/c4cnc5c(c4)NC[C@@](C)(O)C(=O)N5)c(C)oc23)c1 [Compound 183, (R,E)-3-(3-hydroxy-3-methyl-4-oxo-2,3,4,5-tetrahydro-1H-pyrido[2,3-b][1,4]diazepin-8-yl)-N-((7-(3-methoxyphenoxy)-2-methylbenzofuran-3-yl)methyl)-N-methylacrylamide]
12 | < 0.01 | – | < 1 | – | CCC1(O)Cc2cc(/C=C/C(=O)N(C)Cc3oc4ccccc4c3C)cnc2NC1=O (centres unmarked) [Compound 252, (E)-3-(6-ethyl-6-hydroxy-7-oxo-5,6,7,8-tetrahydro-1,8-naphthyridin-3-yl)-N-methyl-N-((3-methylbenzofuran-2-yl)methyl)acrylamide]
13 | < 0.01 | – | < 1 | – | Cc1c(CN(C)C(=O)/C=C/c2cnc3c(c2)NC[C@@H](O)C(=O)N3)oc2ccccc12 [Compound 229, (R,E)-3-(3-Hydroxy-4-oxo-2,3,4,5-tetrahydro-1H-pyrido[2,3-b][1,4]diazepin-8-yl)-N-methyl-N-((3-methylbenzofuran-2-yl)methyl)acrylamide]
14 | < 0.01 | – | < 1 | 43 | Cc1oc2c(N)cccc2c1CN(C)C(=O)/C=C/c1cnc2c(c1)NC[C@H](O)C(=O)N2 [Compound 276, (S,E)-N-((7-amino-2-methylbenzofuran-3-yl)methyl)-3-(3-hydroxy-4-oxo-2,3,4,5-tetrahydro-1H-pyrido[2,3-b][1,4]diazepin-8-yl)-N-methylacrylamide]
15 | < 0.01 | – | < 1 | – | Cc1c(CN(C)C(=O)/C=C/c2cnc3c(c2)N[C@@](C)(CO)C(=O)N3)oc2ccccc12 (single isomer, unassigned) [Compound 208]
16 | < 0.01 | – | < 1 | – | Cc1oc2c(Oc3ccc4c(c3)CCN4)cccc2c1CN(C)C(=O)/C=C/c1cnc2c(c1)CCCC(=O)N2 [Compound 180, (E)-N-((7-(indolin-5-yloxy)-2-methylbenzofuran-3-yl)methyl)-N-methyl-3-(8-oxo-6,7,8,9-tetrahydro-5H-pyrido[2,3-b]azepin-3-yl)acrylamide]
17 | < 0.01 | – | < 1 | – | Cc1c(CN(C)C(=O)/C=C/c2cnc3c(c2)N[C@H](C)CC(=O)N3)oc2ccccc12 [Compound 214, (E)-N-methyl-N-[(3-methylbenzofuran-2-yl)methyl]-3-[(2R)-2-methyl-4-oxo-1,2,3,5-tetrahydropyrido[2,3-b][1,4]diazepin-8-yl]prop-2-enamide]
18 | < 0.01 | – | < 1 | 12 | COc1cccc(Oc2cccc3c(CN(C)C(=O)/C=C/c4cnc5c(c4)CCCC(=O)N5)c(C)sc23)c1 [Compound 194, (E)-N-((7-(3-methoxyphenoxy)-2-methylbenzo[b]thiophen-3-yl)methyl)-N-methyl-3-(8-oxo-6,7,8,9-tetrahydro-5H-pyrido[2,3-b]azepin-3-yl)acrylamide]
19 | < 0.01 | – | < 1 | – | Cc1oc2c(N)cccc2c1CN(C)C(=O)/C=C/c1cnc2c(c1)CCCC(=O)N2 [Compound 168, (E)-N-((7-amino-2-methylbenzofuran-3-yl)methyl)-N-methyl-3-(8-oxo-6,7,8,9-tetrahydro-5H-pyrido[2,3-b]azepin-3-yl)acrylamide]

— US12545672B2, “Antibiotic compounds, methods of manufacturing the same, pharmaceutical compositions containing the same and uses thereof” (Debiopharm International S.A., priority 2018, dated 2026)
